Broadly, the IC50 is the midpoint of a concentration-inhibition curve.

Where a name gives a salt, the structure may show the parent alone. Where only a bound is given, the exact number is not on record here.

For one assay, the target named is T1, p50 (Homo sapiens, UniProt P19838).
T1 sequence (P19838 1-433 limits assumed): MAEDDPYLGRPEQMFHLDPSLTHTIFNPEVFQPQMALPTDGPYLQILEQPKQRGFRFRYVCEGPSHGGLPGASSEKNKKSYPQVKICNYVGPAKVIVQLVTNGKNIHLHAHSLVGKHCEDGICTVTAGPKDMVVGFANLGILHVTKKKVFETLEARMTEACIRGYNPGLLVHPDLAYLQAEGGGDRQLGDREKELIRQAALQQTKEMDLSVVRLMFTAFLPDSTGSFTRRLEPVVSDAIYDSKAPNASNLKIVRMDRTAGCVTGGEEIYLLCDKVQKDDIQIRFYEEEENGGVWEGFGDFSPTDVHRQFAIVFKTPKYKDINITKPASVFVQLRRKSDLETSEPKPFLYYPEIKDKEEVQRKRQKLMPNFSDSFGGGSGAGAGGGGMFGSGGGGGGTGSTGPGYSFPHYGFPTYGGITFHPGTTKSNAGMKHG
In words: TransAM NF-κB Family DNA Binding ELISA, p50. As to conditions: for inhibition at 5 µM: read-out: p50 binding % inhibit. at 5 uM; for IC50: p50 binding IC50 (uM), cells without % sign. A general note: In an ELISA, binding on a coated surface is turned into a signal by an enzyme label.

In a further assay the target is T2, c-Rel (Homo sapiens, UniProt Q04864).
T2 sequence (Q04864 2-619 limits assumed): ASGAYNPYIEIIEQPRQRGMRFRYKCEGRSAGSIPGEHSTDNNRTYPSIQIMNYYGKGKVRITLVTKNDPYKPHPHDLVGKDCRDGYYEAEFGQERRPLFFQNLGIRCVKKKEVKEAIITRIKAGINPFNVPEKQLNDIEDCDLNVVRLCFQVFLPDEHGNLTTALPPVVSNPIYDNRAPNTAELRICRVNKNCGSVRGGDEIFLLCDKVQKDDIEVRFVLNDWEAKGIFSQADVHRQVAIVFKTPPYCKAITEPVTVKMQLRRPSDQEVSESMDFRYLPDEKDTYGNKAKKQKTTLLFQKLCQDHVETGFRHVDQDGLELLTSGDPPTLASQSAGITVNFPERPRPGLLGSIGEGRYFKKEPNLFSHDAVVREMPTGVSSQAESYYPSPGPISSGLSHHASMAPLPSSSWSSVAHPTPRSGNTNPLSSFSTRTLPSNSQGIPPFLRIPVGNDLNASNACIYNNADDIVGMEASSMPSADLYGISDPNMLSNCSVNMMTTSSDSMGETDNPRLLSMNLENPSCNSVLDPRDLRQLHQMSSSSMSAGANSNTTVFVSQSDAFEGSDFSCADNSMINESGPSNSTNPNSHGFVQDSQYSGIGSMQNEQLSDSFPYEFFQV
In words: TransAM NF-κB Family DNA Binding ELISA, c-Rel. As to conditions: for inhibition at 5 µM: read-out: c-Rel binding % inhibit. at 5 uM, at 5 uM; for IC50: c-Rel binding IC50 (uM), cells without % sign.

The test system of assay [1] is IL-6 release from RAW264.7 cells. In words: IL-6 release from LPS stimulated RAW264.7 cells. It counts as cell-based, mouse. As to the method:
Specifically, A and B show the effects of the compound of Example 1 on soluble PGE2 and Il-6 secretion from RAW264.7 cells stimulated by 1 μg/mL of LPS. The cells were treated with the indicated concentrations of the compound of Example 1 for 2 hours, and then LPS was added and incubation continued for 4 hours. […]

A further assay deals with T3, p52 (Homo sapiens, UniProt Q00653).
T3 sequence (Q00653 1-454 limits assumed): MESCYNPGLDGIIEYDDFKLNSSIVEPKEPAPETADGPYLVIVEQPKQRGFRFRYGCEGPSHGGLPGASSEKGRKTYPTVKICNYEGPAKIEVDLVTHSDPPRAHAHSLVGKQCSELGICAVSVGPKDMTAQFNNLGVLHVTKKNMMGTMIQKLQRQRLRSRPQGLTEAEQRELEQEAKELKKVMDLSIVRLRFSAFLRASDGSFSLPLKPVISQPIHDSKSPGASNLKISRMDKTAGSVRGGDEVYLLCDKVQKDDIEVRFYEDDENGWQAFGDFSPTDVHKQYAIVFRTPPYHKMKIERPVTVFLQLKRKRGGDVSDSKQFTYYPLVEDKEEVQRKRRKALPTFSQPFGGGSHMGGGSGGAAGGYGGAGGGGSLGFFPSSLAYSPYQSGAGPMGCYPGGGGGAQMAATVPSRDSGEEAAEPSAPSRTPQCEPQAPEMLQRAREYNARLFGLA
In words: TransAM NF-κB Family DNA Binding ELISA, p52. The settings on record: for inhibition at 5 µM: read-out: p52 binding % inhibit. at 5 uM, at 5 uM; for IC50: p52 binding IC50 (uM), cells without % sign.

Another assay addresses p65 (RelA) (Homo sapiens, UniProt Q04206). As to the kind of experiment: TransAM NF-κB Family DNA Binding ELISA, p65. The settings on record: p65 binding IC50 (uM), binding to NF-κB sites.
The test system of assay [2] is NF-κB. In words: 293-cell pTRH1-NF-κB-dscGFP reporter assay, TNF-α induced. The class given is cell-based. As to conditions: Homo sapiens, HEK293, HEK293 cells, NF-κB driven GFP expression; read-out: NF-kB/293/GFP EC50. As to the method:
(§1) Inhibition of NF-κB in cells by the compound of Example 1. Two reporter cell assays were used to determine the ability of the compound of Example 1 to inhibit NE-KB driven transcription. The first assay was a 293-cell based assay with a stably integrated pNF-κB-luc reporter plasmid containing 3 NF-κB promoter elements. The second assay was a 293-cell based assay with a stably integrated pTRH1-NF-κB-dscGFP reporter containing 4 NF-κB promoter elements. Cells were treated with 0, 0.2, 1, 10, 20 and 40 μM of the compound of Example 1 for 2 hours then were induced with 20 ng/ml TNF-α for 18 hours. Following the induction, luminescence or fluorescence was quantified using a Beckman-Coulter 2300 plate reader. […] These values represent the median value generated from three independent experiments±the standard error. As a control, 0.5% DMSO treated and untreated cells were compared to verify that the Example 1 carrier had no effect on the expression of luciferase or in the readout of the assay. There was a slight decrease in the output from the assay in the DMSO treated population although it was not statistically significant. As a result of the controls, the decrease in activity in the drug treated samples was compared to the DMSO control sample.

The target of a further assay is T4, RelB (Homo sapiens, UniProt Q01201).
T4 sequence (Q01201 1-579): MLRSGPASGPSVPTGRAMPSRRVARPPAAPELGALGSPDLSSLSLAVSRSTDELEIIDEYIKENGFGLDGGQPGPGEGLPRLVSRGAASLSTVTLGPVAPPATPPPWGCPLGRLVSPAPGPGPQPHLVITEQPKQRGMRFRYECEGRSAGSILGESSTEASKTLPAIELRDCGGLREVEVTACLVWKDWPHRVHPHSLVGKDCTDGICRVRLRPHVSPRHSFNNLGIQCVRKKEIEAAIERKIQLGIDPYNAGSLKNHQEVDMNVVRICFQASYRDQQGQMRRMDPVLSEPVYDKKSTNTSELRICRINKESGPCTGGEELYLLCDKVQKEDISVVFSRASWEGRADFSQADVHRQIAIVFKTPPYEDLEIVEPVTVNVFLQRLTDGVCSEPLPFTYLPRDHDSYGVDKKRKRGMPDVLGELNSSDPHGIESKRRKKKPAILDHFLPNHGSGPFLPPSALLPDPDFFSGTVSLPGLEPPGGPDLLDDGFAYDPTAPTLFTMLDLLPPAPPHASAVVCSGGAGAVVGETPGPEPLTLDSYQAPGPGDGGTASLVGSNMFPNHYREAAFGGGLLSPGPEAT
T4 sequence (Q00653 1-454 partner limits assumed): T3 sequence (Q00653 1-454 limits assumed)
In words: TransAM NF-κB Family DNA Binding ELISA, RelB. The settings on record: for inhibition at 5 µM: read-out: RelB binding % inhibit. at 5 uM, at 5 uM; for IC50: RelB binding IC50 (uM), cells without % sign.

The subject of assay [3] is NF-κB. In words: 293-cell pNF-κB-luc reporter assay, TNF-α induced. As to conditions: HEK293 cells, NF-κB driven luciferase expression, read-out: 293/NFkB-luc EC50. It counts as cell-based. As to the method: as §1
In general terms: A reporter such as luciferase makes a cellular process visible.

The mark [4] stands for this setting: Mus musculus, RAW264.7, RAW 264.7 cells.
Where [5] appears, read: RAW 264.7 cells, trifluoroacetate.

Chain of p65 (RelA) (Q04206 whole entry): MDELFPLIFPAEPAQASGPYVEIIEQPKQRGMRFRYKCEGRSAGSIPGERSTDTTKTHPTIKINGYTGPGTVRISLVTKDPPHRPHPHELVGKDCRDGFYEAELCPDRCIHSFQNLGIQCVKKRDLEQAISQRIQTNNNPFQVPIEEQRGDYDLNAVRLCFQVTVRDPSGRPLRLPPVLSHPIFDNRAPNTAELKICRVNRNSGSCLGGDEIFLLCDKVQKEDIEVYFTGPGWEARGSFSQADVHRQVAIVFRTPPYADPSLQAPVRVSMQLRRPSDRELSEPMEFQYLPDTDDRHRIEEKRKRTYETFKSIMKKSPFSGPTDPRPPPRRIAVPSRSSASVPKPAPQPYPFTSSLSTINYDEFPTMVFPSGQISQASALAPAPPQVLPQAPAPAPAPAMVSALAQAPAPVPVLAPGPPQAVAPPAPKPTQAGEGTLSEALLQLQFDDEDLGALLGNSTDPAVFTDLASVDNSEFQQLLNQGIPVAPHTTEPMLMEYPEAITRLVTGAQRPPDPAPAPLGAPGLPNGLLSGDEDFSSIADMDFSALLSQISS
Protocol for p65 (RelA): Treated samples were then transferred to 30 μL Complete Binding Buffer (with DTT) in microplate wells pre-coated with the NF-κB consensus oligonucleotide. […] The plate was incubated for 1 hour at room temperature with gentle shaking and then washed 3 times with 200 μL 1× Wash Buffer. NF-κB p65, p50, p52, RelB, or c-Rel subunits bound to the plate were detected with 100 μL of the primary antibody (diluted 1:1000 in 1× Antibody Buffer) specific for that subunit. The plate was incubated for 1 hour at room temperature and then washed 3 times with 200 μL 1× Wash Buffer. Next, 100 μL of a HRP conjugated goat anti-rabbit antibody (diluted 1:1,000 in 1× Antibody Buffer) was added to each well. The plate was incubated for 1 hour at room temperature and then washed 4 times with 200 μL 1× Wash Buffer. 100 μL of room temperature Developing Solution was added to each well. The reaction was allowed to develop for 2-10 minutes until a medium dark blue color developed (depending on the subunit activity in the lot of extract or lot of recombinant protein used) and then the reaction was stopped with 100 μL Stop Solution yielding a yellow color. Absorbance was recorded using a Becton-Dickinson DTX 880 Multimode Detector at 450 nm with a reference wavelength subtracted at 620 nm.

As to `O=C(NC1=CC(=O)C2OC2C1O)c1nc2ccccc2cc1O` (racemic) [Example 15, (±)-3-hydroxy-quinoline-2-carboxylic acid-(2-hydroxy-5-oxo-7-oxa-bicyclo[4.1.0]hept-3-en-3-yl)-amide], the inhibition at 5 µM was found to be 0% on p50, 6% on c-Rel, 0% on p52 and 0% at RelB. Further, the EC50 in assay [1] (setting [4]) is 1000 nM; in the assay on NF-κB [2], 4.9 µM; in the assay with NF-κB [3], 11 µM. Further, the 50% inhibitory concentration (IC50) on p65 (RelA) was determined as 488 µM.

Turning to `O=C(NC1=CC(=O)C2OC2C1O)c1ncccc1O` (racemic) [Example 3, (±)-3-hydroxy-N-(2-hydroxy-5-oxo-7-oxabicyclo[4.1.0]hept-3-en-3-yl)picolinamide], the IC50 at p50 was above 636 µM; on p52, 301 µM. Moreover, the “c-Rel binding % inhibit. at 5 uM” value at c-Rel was 15%. The EC50 in assay [1] (RAW 264.7 cells) stood at 1400 nM; with NF-κB [2], 3.4 µM; in the assay on NF-κB [3], 15 µM. Also, the “RelB binding % inhibit. at 5 uM” value at RelB was found to be 0%.

In the case of `O=C(NC1=CC(=O)C2OC2C1O)c1cnccc1O` (racemic) [Example 4, (±)-4-hydroxy-N-(2-hydroxy-5-oxo-7-oxa-bicyclo[4.1.0]hept-3-en-3-yl)-nicotinamide], the figures for the IC50 on p50, on p52 and at p65 (RelA) were 118 µM, 365 µM and 5 µM, respectively. Moreover, the inhibition at 5 µM came out at 23% on c-Rel and 21% at RelB. The EC50 was above 51000 nM in assay [1] (setting [4]), 40 µM with NF-κB [2] and above 51 µM with NF-κB [3].

In the case of `COc1nc2ccccc2cc1C(=O)NC1=CC(=O)C2OC2C1O` (racemic) [Example 25, (±)-2-methoxy-quinoline-3-carboxylic acid (2-hydroxy-5-oxo-7-oxa-bicyclo[4.1.0]hept-3-en-3-yl)-amide], the 50% inhibitory concentration (IC50) at p50 came out at 1.2 µM; on c-Rel it was 0.49 µM; at p52, 4.7 µM; on p65 (RelA) it was 1.1 µM; on RelB, 0.65 µM. In addition, the EC50 in assay [1] (setting [4]) was 130 nM; in the assay with NF-κB [2], 0.84 µM; in the assay with NF-κB [3], 4.1 µM.

For the compound `O=C(NC1=CC(=O)C2OC2C1O)c1cnc(N2CCCCC2)nc1O` (racemic) [Example 11, (±)-4-hydroxy-2-piperidin-1-yl-pyrimidine-5-carboxylic acid (2-hydroxy-5-oxo-7-oxa-bicyclo[4.1.0]hept-3-en-3-yl)-amide], the inhibition at 5 µM is 4% at p50, 40% on c-Rel, 9% on p52 and 18% at RelB. Also, the values for the EC50 (in assay [1] (setting [4]); with NF-κB [2]; in the assay on NF-κB [3]) were 7700 nM, 5.8 µM and 15 µM, respectively. This compound also yielded a half-maximal inhibitory concentration (IC50) at p65 (RelA) of 4.6 µM.

Consider `COc1ncccc1C(=O)NC1=CC(=O)C2OC2C1O` (racemic) [Example 21, (±)-N-(2-hydroxy-5-oxo-7-oxa-bicyclo[4.1.0]hept-3-en-3-yl)-2-methoxy-nicotinamide trifluoroacetate], for which the 50% inhibitory concentration (IC50) on p50 came to 22 µM; on c-Rel, 1.1 µM; at p52, 22 µM; at p65 (RelA) it was 0.55 µM; at RelB, 1.5 µM. The results for the EC50 (in assay [1] (setting [5]); in the assay on NF-κB [3] (trifluoroacetate)) were 380 nM and 5.8 µM, respectively.

Turning to `Cc1ccc(S(=O)(=O)O)cc1.O=C(NC1=CC(=O)C2OC2C1O)c1ncccc1O` (racemic) [Example 14, (±)-3-hydroxy-N-(2-hydroxy-5-oxo-7-oxabicyclo[4.1.0]hept-3-en-3-yl)picolinamide tosylate], the “c-Rel binding % inhibit. at 5 uM” value at c-Rel is reported as 1%. Also, the EC50 in assay [1] (RAW 264.7 cells, tosylate) was 3300 nM; in the assay on NF-κB [3] (tosylate), 23 µM. Further, on p52, the “p52 binding % inhibit. at 5 uM” value is 6%. In addition, the “RelB binding % inhibit. at 5 uM” value at RelB came out at 9%.

Turning to `O=C(NC1=CC(=O)C2OC2C1O)c1ncccc1O.O=C(O)C(F)(F)F` (racemic) [Example 13, (±)-3-hydroxy-N-(2-hydroxy-5-oxo-7-oxabicyclo[4.1.0]hept-3-en-3-yl)picolinamide trifluoroacetate], on c-Rel, the “c-Rel binding % inhibit. at 5 uM” value is 15%. The EC50 in assay [1] (setting [5]) came out at 1400 nM; with NF-κB [3] (trifluoroacetate), 9.2 µM. Further, on p52, the “p52 binding % inhibit. at 5 uM” value is on record as 0%. Further, the “RelB binding % inhibit. at 5 uM” value at RelB came to 10%.

(Values after patent US8629164B2, “Inhibitors of NF-κB” (Profectus Biosciences, Inc., priority 2009, dated 2014).)
